Results on eight compounds are retold here after patent publication US4594425A, “Heterocyclic compounds as antiallergic agents” (American Home Products Corporation, priority 1984, dated 1986).

Assay [1] concerns synthesis of 5-HETE by rat glycogen-elicited polymorphonuclear leukocytes (lipoxygenase). The assay is described as follows: inhibition of 5-HETE synthesis by rat glycogen-elicited polymorphonuclear leukocytes. The assay is classed as cell-based, rat (Wistar). To be noted: Leukocyte; rat PMN, A23187 10 μM, [14C] arachidonic acid, 37° C.; read-out: 50% Inhibitory Concentration (IC50) 5-HETE. The method, then: (§1) This is especially true with respect to 5,12-diHETE, which is also denoted as LTB4 [see Ford-Hitchinson, J. Roy. Soc. Med., 74, 831 (1981)]. The assay of this Example measures the ability of the compounds of the invention to inhibit the synthesis of 5-HETE and LTB4 by rat glycogen-elicited polymorphonuclear leukocytes.
(§2) The assay is carried out as follows:
(§3) Peritoneal PMN are obtained from female Wistar rats (150-250 g) that received an i.p. injection of 6% glycogen (10 ml). After 24 hours, rats are killed by CO2 asphyxiation and peritoneal cells are harvested by peritoneal lavage using Ca^++ and Mg^++ free Hanks' balanced salt solution (HBSS). The peritoneal exudate is centrifuged at 400 g for 10 minutes. After centrifugation, the lavaged fluid is removed and the cell pellet is resuspended in HBSS containing Ca^++ and Mg^++ and 10 mM L-cysteine at a concentration of 2×10^7 cells/ml. To 1 ml portions of cell suspension, test drugs or vehicle are added and incubated at 37° C. for 10 minutes. Following this preincubation, the calcium ionophore (10 μM), A23187, is added together with 0.5 μCi [^14 C] arachidonic acid and further incubated for 10 minutes. The reaction is stopped by the addition of ice cold water (3 ml) and acidifying to pH 3.5. Lipoxygenase products are then extracted twice into diethyl ether. The pooled ether extracts are evaporated to dryness under nitrogen and the residue is redissolved in a small volume of methanol and spotted on aluminum backed pre-coated thin layer chromatographic plates. The samples are then co-chromatographed with authentic reference 5-HETE, 12-HETE and 5,12-diHETE in the solvent system-hexane:ether:acetic acid (50:50:3). After chromatography, the areas associated with 5-HETE and 5,12-diHETE standards are identified by autoradiography, cut out and quantitated by liquid scintillation.
(§4) Results are expressed as % inhibition of [^14 C]5-HETE and [^14 C]LTB4 (5,12-HETE) synthesis. [formula]
(§5) Testing compounds of the invention in this assay and using the antioxident 3-amino-1-[m-(trifluoromethyl)phenyl]-2-pyrazoline (BW755C) as a standard, the following results are obtained.

Assay [2] has as its system synthesis of LTB4 by rat glycogen-elicited polymorphonuclear leukocytes (lipoxygenase). The assay is described as follows: inhibition of LTB4 (5,12-diHETE) synthesis by rat glycogen-elicited polymorphonuclear leukocytes. The assay is classed as cell-based, rat (Wistar). Conditions: Leukocyte; rat PMN, A23187 10 μM, [14C] arachidonic acid, 37° C.; read-out: 50% Inhibitory Concentration (IC50) LTB4. As to the method:
as §1, §2, §3, §4, §5

Assay [3] concerns LTD4 induced bronchoconstriction. Put plainly: in vivo inhibition of bronchospasm induced in guinea pigs by exogenously administered LTD4. Also noted: species or system guinea pig (male Hartley). To be noted: 50 mg/kg intraduodenal, 10 minutes before LTD4, average of 6 experiments. As to the method: The assay of this Example measures the in vivo ability of the compounds of the invention to inhibit the bronchospasm induced in guinea pigs by the exogenously administered leukotrienes C4 and/or D4. This assay is essentially a measure of the SRS-A antagonist properties of the compounds tested.
This assay is carried out as follows:
Male Hartley strain guinea pigs (350-600 g) are anesthetized with pentobarbital sodium (50 mg/kg, i.p.). The jugular vein is cannulated for injection of drugs and the carotid artery for monitoring blood prerssure. The trachea is cannulated for artificial ventilation by a miniature Starling pump and for indirect measurement of respiratory volume changes as described infra. Additional pentobarbital sodium (15 mg/kg, i.v.) is administered to arrest spontaneous respiration. Submaximal bronchoconstrictor responses are established in control animals by varying the dose-levels of leukotriene. Intravenous dose-levels of LTC4 range from 1 to 2 μg/kg and for LTD4 the range is from 0.3 to 1 μg/kg. The aerosol bronchoprovocation dose for LTC4 is generated from 1.6 μM solution and for LTD4 from a 2.0 μM solution.
Test drugs are administered either intravenously, by aerosol or orally at 1 or 10 minutes before induction of bronchospasm by administration of either LTC4 or LTD4 at the predetermined dose-levels. Aerosols of soluble drugs or leukotrienes are produced in-line for 10 seconds only by actuation of an ultrasonic nebulizer (Monaghan). Aerosolized drug dosage is expressed in terms of solution concentration and by a fixed aerosol exposure time (approximately 10 seconds). Control animals receive saline in place of drug.
Respiratory volume changes are determined by a calibrated piston whose travel is recorded, via a linear transducer, on a Beckman Dynograph recorder. Maximal bronchoconstrictor volume is determined by clamping off the trachea at the end of the experiment. Overflow volumes at 3 and 5 minutes are obtained from the recorded charts.
The overflow volume at 3 and 5 minutes is expressed as a percentage of maximal bronchoconstriction. Combined group values are used from each of these time intervals to determine the inhibitory effect of drugs. [formula] Students t-test for unpaired data is used to determine statistical significance. Dose response curves are generated and ED50 doses are interpolated from the regression lines.
Results for compounds of the invention in this assay, using LTD4 for induction of bronchospasm, are given below: […]

Assay [4] has as its system ovalbumin induced bronchospasm mediated by endogenous products of the lipoxygenase oxidation of arachidonic acid. The assay is described as follows: in vivo inhibition of ovalbumin induced bronchospasm in sensitized guinea pigs (endogenous mediators). Also noted: species or system guinea pig (male Hartley). Conditions: 50 mg/kg intraduodenal, 10 minutes before ovalbumin challenge, average of 6 experiments.

In the case of `NC1=NN(c2cccc(C(F)(F)F)c2)CC1` [BW755C, 3-amino-1-[m-(trifluoromethyl)phenyl]-2-pyrazoline, reference compound], the results for the IC50 in assay [1] and in assay [2] were 43 µM and 30 µM, respectively.

For `COC(=O)CCC(=O)Nc1cccc(OCc2nc3ccccc3s2)c1` [Example 1, 4-[[3-[(2-benzthiazolyl)methoxy]phenyl]amino]-4-oxobutanoic acid, methyl ester], the “% Inhibition (Statistical Average), Overflow Volume at 3 min.” value (“% Inhibition … at 3 min.” below) worked out at 33% in assay [3] and 68% in assay [4]. The “% Inhibition (Statistical Average), Overflow Volume at 5 min.” value (“% Inhibition … at 5 min.” below) in assay [3] came out at 41%; in assay [4] it was 49%. Further, the results for the IC50 in assay [1] and in assay [2] were 15.7 µM and 26 µM, respectively.

Consider `COC(=O)CCC(=O)Nc1cccc(OCc2nc3ccccc3o2)c1` [Example 2a, 4-[[3-[(2-benzoxazolyl)methoxy]phenyl]amino]-4-oxobutanoic acid, methyl ester], for which the IC50 worked out at 69.7 µM in assay [1] and 65.5 µM in assay [2].

Consider `COC(=O)CCC(=O)Nc1cccc(OCc2nc3ccccc3n2C)c1` [Example 2b, 4-[[3-[(1-methyl-2-benzimidazolyl)methoxy]phenyl]amino]-4-oxobutanoic acid, methyl ester], for which, in assay [3], the “% Inhibition … at 3 min.” value was found to be 82% and the “% Inhibition … at 5 min.” value was 82%. Further, in assay [4], the “% Inhibition … at 3 min.” value was found to be 54% and the “% Inhibition … at 5 min.” value was found to be 49%.

In the case of `COC(=O)CC(=O)Nc1cccc(OCc2nc3ccccc3s2)c1` [Example 2c, 3-[[3-[(2-benzthiazolyl)methoxy]phenyl]amino]-3-oxopropanoic acid, methyl ester], in assay [3], the “% Inhibition … at 3 min.” value is reported as 77% and the “% Inhibition … at 5 min.” value worked out at 76%.

Consider `COC(=O)CC(=O)Nc1cccc(OCc2nc3ccccc3n2C)c1` [Example 2d, 3-[[3-[(1-methyl-2-benzimidazolyl)methoxy]phenyl]amino]-3-oxopropanoic acid, methyl ester], for which, in assay [3], the “% Inhibition … at 3 min.” value was found to be 62% and the “% Inhibition … at 5 min.” value is 59%.

As to `COC(=O)CCC(=O)Nc1cccc(OCc2cc3ccccc3o2)c1` [Example 3, 4-[[3-[(2-benzofuranyl)methoxy]phenyl]amino]-4-oxobutanoic acid, methyl ester], the IC50 worked out at 17.9 µM in assay [1] and 27.3 µM in assay [2].

With `COC(=O)CCC(=O)N(O)c1cccc(OCc2nc3ccccc3s2)c1` [Example 6, 4-[[3-[(2-benzthiazolyl)methoxy]phenyl]hydroxylamino]-4-oxobutanoic acid, methyl ester], in assay [3], the “% Inhibition … at 3 min.” value came to 78% and the “% Inhibition … at 5 min.” value is 78%. The IC50 in assay [1] came out at 0.36 µM. For the same compound, the IC50 in assay [2] worked out at 0.49 µM.
